Results: publication PMC7249612 (Biochemistry, 2016)

System: LoxA
Assay: LoxA inhibition, manual cuvette assay
Assay type: biochemical, Pseudomonas aeruginosa
Conditions: compared with the human enzymes

Question: `CC(Cc1ccc(O)c(O)c1)C(C)Cc1ccc(O)c(O)c1` (stereo not shown) [NDGA, nordihydroguaiaretic acid, reference compound] was tested. Which “IC50 value against LoxA” value did it give?
Answer: The value was “comparable to the values obtained against the human enzymes”.
